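In this assay, cells in 96-well plates receive the compound at five concentrations for 48 hours. Endpoints are linearly interpolated between the surrounding concentrations. At the GI50, growth is halved.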 Calls of active or inactive are those of the source. Cut-off read from the data, not from the text of the source: active = GI50 up to about 1.1 µM and inactive = higher.
Key:
Experiment in all cases: inhibition of tumour cell growth, NCI panel, 48 h
[1] = tested on: SNB-75
[2] = tested on: HOP-62
[3] = tested on: HCT-116
[4] = tested on: ACHN
[5] = tested on: NCI-H460
[6] = tested on: HL-60
[7] = tested on: IGROV-1
[8] = tested on: SK-MEL-5
[9] = tested on: SNB-19
[10] = tested on: A498
[11] = tested on: NCI-H23
[12] = tested on: LOX IMVI
[13] = tested on: CCRF-CEM
[14] = tested on: SK-MEL-2
[15] = tested on: SK-MEL-28
[16] = tested on: SW-620
[17] = tested on: Malme-3M
[18] = tested on: 786-0
[19] = tested on: NCI-H522
[20] = tested on: HOP-92

Measured: GI50

C1=CC=C2NCCSCC/N=C3/C=CC=CC=C3NCCSCC/N=C\2C=C1
inactive: [1] > 100 µM | [2] > 100 µM | [3] > 100 µM | [4] > 100 µM | [5] > 100 µM | [6] > 100 µM | [7] > 100 µM | [8] > 100 µM | [9] > 100 µM | [10] > 100 µM | [11] > 100 µM | [12] > 100 µM | [13] > 100 µM | [14] > 100 µM | [15] > 100 µM | [16] > 100 µM | [17] > 100 µM | [18] > 100 µM | [19] > 100 µM

Cn1nc2ccc3nccc(NCCNCCCl)c3c2n1
inactive: [1] > 100 µM | [2] > 100 µM | [3] > 100 µM | [4] > 100 µM | [5] > 100 µM | [6] > 100 µM | [7] > 100 µM | [9] > 100 µM | [12] > 100 µM | [13] > 100 µM | [14] > 100 µM | [15] > 100 µM | [16] > 100 µM | [17] > 100 µM | [20] > 100 µM | [19] > 100 µM

CCN1CCC(O)(c2ccc([N+](=O)[O-])cc2)C(C(=O)c2ccc([N+](=O)[O-])cc2)C1 (centres undefined)
inactive: [1] 34.5 µM | [2] 77.3 µM | [3] 17.2 µM | [4] 17.8 µM | [5] 28.8 µM | [6] 41.5 µM | [7] 18.2 µM | [8] 18.1 µM | [9] 95.1 µM | [10] 22 µM | [11] 19.5 µM | [12] 21.6 µM | [13] 11.9 µM | [14] 43.2 µM | [15] 16.6 µM | [16] 25.1 µM | [17] 20.1 µM | [18] 15.5 µM | [19] 3.33 µM

O=c1cc(-c2ccccc2)oc2cc(OCCCOc3ccc4c(=O)cc(-c5ccccc5)oc4c3)ccc12
inactive: [1] 47.2 µM | [2] > 100 µM | [3] > 100 µM | [4] > 100 µM | [5] > 100 µM | [6] > 100 µM | [7] > 100 µM | [8] > 100 µM | [9] > 100 µM | [11] > 100 µM | [12] > 100 µM | [13] > 100 µM | [14] > 100 µM | [15] > 100 µM | [16] > 100 µM | [17] > 100 µM | [20] > 100 µM | [18] > 100 µM | [19] > 100 µM

NNC(=O)N/N=C(/CC1(O)C(=O)Nc2ccc(Br)cc21)c1ccccc1 (centres undefined)
inactive: [1] 9.27 µM | [3] 27.9 µM | [4] 24.3 µM | [6] 21.9 µM | [7] 41.1 µM | [9] 11.8 µM | [11] 29 µM | [12] 18.1 µM | [13] 27.1 µM | [14] 34.4 µM | [15] 28.2 µM | [16] 50 µM | [17] 33.9 µM | [20] 18.1 µM | [18] 57.3 µM | [19] 18.8 µM

COc1ccc(-c2c(C#N)c(-c3ccc(C)cc3)n(NS(=O)(=O)c3ccc(C)cc3)c(=O)c2C#N)cc1
inactive: [1] 31.2 µM | [2] 39.7 µM | [3] 38.5 µM | [4] 50.6 µM | [5] 54.3 µM | [7] 39.5 µM | [8] 23.5 µM | [9] 47.4 µM | [10] 92 µM | [12] 39.3 µM | [13] 23.7 µM | [14] 58.9 µM | [15] 61.1 µM | [16] 49.5 µM | [17] > 100 µM | [20] 74.6 µM | [18] 86.5 µM | [19] 80.7 µM

O=C1Nc2c(Cl)cccc2/C1=N/Nc1ccccc1[N+](=O)[O-]
inactive: [1] 14 µM | [2] 9.27 µM | [3] 29.7 µM | [4] 11.9 µM | [5] 17.3 µM | [6] 70.1 µM | [7] 1.9 µM | [8] 12.2 µM | [9] 44.3 µM | [10] 28.2 µM | [11] 13.5 µM | [12] 11.8 µM | [13] 46 µM | [14] 70.6 µM | [15] 35.1 µM | [16] 32.7 µM | [17] 3.58 µM | [18] 10.1 µM | [19] 4.45 µM

COc1cc(C=O)ccc1Oc1nnnn1-c1ccccc1
inactive: [1] 34.8 µM | [2] > 100 µM | [3] 29.8 µM | [5] > 100 µM | [7] 84.1 µM | [8] 20.1 µM | [9] 54.8 µM | [11] 46 µM | [12] 39.9 µM | [13] 19.6 µM | [14] > 100 µM | [15] 72.4 µM | [16] 27.5 µM | [17] 84.1 µM | [20] 71.4 µM | [18] > 100 µM | [19] > 100 µM

BrC/C=C/C[P+](c1ccccc1)(c1ccccc1)c1ccccc1
inactive: [1] 19.8 µM | [2] 19.6 µM | [3] 3.97 µM | [4] 12.2 µM | [5] 7.46 µM | [6] 2.54 µM | [7] 55.5 µM | [8] 11.1 µM | [9] 21.3 µM | [11] 32.3 µM | [12] 10.4 µM | [13] > 100 µM | [14] 10.8 µM | [15] 33.3 µM | [16] 6.52 µM | [17] 12.4 µM | [20] 11.7 µM | [18] 10.3 µM | [19] 12.4 µM

CC1(C)OC(=O)C(c2ccsc2)C(=O)O1
inactive: [1] > 100 µM | [2] > 100 µM | [3] > 100 µM | [4] > 100 µM | [5] > 100 µM | [6] > 100 µM | [8] > 100 µM | [9] > 100 µM | [11] > 100 µM | [12] > 100 µM | [13] > 100 µM | [14] > 100 µM | [15] > 100 µM | [16] > 100 µM | [17] > 100 µM | [20] > 100 µM | [18] > 100 µM | [19] > 100 µM

O=C(CC(=O)c1ccc([N+](=O)[O-])cc1)C(=O)Nc1nccs1
inactive: [1] > 100 µM | [2] > 100 µM | [4] > 100 µM | [5] > 100 µM | [6] > 100 µM | [7] > 100 µM | [8] > 100 µM | [9] > 100 µM | [11] > 100 µM | [12] > 100 µM | [13] > 100 µM | [14] > 100 µM | [15] > 81.5 µM | [16] > 100 µM | [17] > 100 µM | [20] > 100 µM | [18] > 100 µM | [19] > 100 µM

O=C(CN1CCCCC1)Nc1ccc2sc3ccccc3c(=O)c2n1
inactive: [1] 15.2 µM | [2] 13.8 µM | [3] 9.23 µM | [4] 14.2 µM | [5] 13.2 µM | [6] 17.1 µM | [7] 16 µM | [8] 15.8 µM | [9] 19.9 µM | [11] 16.9 µM | [12] 7.01 µM | [13] 5.92 µM | [14] 18.6 µM | [15] 17.3 µM | [16] 5.25 µM | [17] 32.1 µM | [20] 15.1 µM | [18] 12.9 µM | [19] 6.44 µM

CCOC(=O)[C@@]12CCC(C1=O)[C@](C)(O)C[C@@H]2c1ccccc1
inactive: [1] 33 µM | [2] 71.1 µM | [3] 32.6 µM | [4] 53.2 µM | [5] 39.2 µM | [6] 24.3 µM | [7] 35.4 µM | [8] 35.2 µM | [9] 43.7 µM | [11] 66.5 µM | [12] 48.6 µM | [13] 79.4 µM | [14] 38.1 µM | [15] 79.3 µM | [16] > 100 µM | [17] 37.6 µM | [20] 55.1 µM | [18] 23.1 µM | [19] 19 µM

Cc1cccc(CC(Cc2c(C)cccc2C(=O)O)C(=O)O)c1 (centres undefined)
inactive: [1] > 100 µM | [2] > 100 µM | [3] > 100 µM | [4] > 100 µM | [5] > 100 µM | [6] > 100 µM | [7] > 100 µM | [8] 4.49 µM | [9] > 100 µM | [10] > 100 µM | [11] > 100 µM | [12] > 100 µM | [13] > 100 µM | [14] 58.7 µM | [15] > 100 µM | [16] > 100 µM | [17] > 100 µM | [18] > 100 µM | [19] > 100 µM

Nc1ccc(S(=O)(=O)Nc2nc3ccccc3nc2N2CCCCCC2)cc1
inactive: [1] 50.8 µM | [2] 20 µM | [3] 16.6 µM | [4] 35.9 µM | [5] 23.4 µM | [6] 19.1 µM | [7] 34.4 µM | [8] 16.1 µM | [9] 32.7 µM | [11] 9.06 µM | [12] 17.3 µM | [13] 33.5 µM | [14] 20 µM | [15] 18.5 µM | [16] 20 µM | [17] 34.4 µM | [20] 23.4 µM | [18] 30.2 µM | [19] 29 µM
